From patent US20040229791A1, “Compositions and methods of modulating TGF-beta activity by fatty acids” (priority 2002, published 2004)

Experiments:
native α2M = target: T1, native α2M (Homo sapiens, UniProt P01023); assay: Gel filtration of 3H-arachidonic acid with native α2M; type: binding; settings: 100 μM 3H-arachidonic acid
T1 construct: was purified from pooled citrate-treate human plasma; from tissue; host or cells: pooled citrate-treated human plasma
T1 sequence (P01023 24-1474): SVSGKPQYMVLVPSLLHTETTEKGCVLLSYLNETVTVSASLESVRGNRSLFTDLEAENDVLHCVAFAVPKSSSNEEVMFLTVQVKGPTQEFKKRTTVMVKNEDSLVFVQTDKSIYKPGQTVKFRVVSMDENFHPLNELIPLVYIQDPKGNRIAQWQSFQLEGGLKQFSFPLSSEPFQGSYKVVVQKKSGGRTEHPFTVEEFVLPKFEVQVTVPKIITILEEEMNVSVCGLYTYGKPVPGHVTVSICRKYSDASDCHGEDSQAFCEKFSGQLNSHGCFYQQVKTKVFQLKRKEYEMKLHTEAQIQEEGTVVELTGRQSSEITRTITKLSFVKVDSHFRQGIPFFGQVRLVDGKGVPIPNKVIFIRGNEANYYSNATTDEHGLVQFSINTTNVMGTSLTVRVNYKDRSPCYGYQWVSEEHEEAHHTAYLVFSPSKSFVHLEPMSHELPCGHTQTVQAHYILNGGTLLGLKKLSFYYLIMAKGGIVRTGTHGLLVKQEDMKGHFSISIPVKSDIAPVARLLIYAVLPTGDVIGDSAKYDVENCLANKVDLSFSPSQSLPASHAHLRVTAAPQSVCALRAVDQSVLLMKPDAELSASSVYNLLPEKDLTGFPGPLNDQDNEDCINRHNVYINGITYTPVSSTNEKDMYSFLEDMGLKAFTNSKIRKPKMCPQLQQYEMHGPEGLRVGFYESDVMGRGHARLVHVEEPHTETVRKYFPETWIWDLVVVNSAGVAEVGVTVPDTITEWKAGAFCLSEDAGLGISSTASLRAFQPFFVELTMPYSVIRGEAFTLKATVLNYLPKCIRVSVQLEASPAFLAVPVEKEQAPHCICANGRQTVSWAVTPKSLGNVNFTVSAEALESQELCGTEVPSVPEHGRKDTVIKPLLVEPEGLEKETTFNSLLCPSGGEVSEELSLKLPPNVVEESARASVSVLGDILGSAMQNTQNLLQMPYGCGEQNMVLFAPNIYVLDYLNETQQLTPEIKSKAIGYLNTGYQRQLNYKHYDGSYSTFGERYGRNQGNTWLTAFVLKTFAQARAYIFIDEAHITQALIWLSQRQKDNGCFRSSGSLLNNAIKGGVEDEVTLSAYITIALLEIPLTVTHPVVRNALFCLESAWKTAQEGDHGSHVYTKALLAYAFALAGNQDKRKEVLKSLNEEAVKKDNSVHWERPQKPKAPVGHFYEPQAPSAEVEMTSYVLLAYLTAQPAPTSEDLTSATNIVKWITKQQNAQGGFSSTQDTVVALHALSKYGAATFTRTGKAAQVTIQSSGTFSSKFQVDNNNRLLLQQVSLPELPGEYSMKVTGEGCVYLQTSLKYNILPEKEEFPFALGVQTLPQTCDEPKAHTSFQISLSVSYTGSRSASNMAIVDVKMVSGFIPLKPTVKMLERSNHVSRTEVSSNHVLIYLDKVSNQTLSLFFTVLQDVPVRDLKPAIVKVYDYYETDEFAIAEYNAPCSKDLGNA
Protocol: The interaction of ^3H-arachidonic acid and α2M* was determined using gel filtration. ^3H-arachidonic acid was incubated with native ? 2M or ? 2M*, which was activated by methylamine. After incubation at room temperature for 30 min, the reaction mixture was subjected to gel filtration chromatography on Sephacryl® S-300 HR. The ^3H-arachidonic acid radioactivity and concentrations of. α2M* or native ? 2M in the eluents were determined by scintillation counting and 5% SDS-PAGE followed by Coomassie blue staining, respectively. […] The small peak, which appeared in the flow-through fractions, contained the ^3H-arachidonic acid- ? 2M* complex and free ? 2M*, which was identified by Coomassie blue staining (FIG. 5, inset). The subsequent large peak, which appeared in the column bed volume fractions, was identified as free ^3H-arachidonic acid.
Gel Filtration of ^3H-arachidonic acid-α2M* Complexes—The reaction mixture contained 100 μM ^3H-arachidonic acid with or without 10 μg of ? 2M*, which was activated by methylamine and plasmin as described previously (12,22), or native ? […] The column was then eluted with the same phosphate buffer and the fractional volume was ˜1 ml, 20 μl of which was counted with a scintillation counter and an another 20 μl of which was analyzed by SDS-PAGE followed by Coomassie blue staining (to locate fractions containing. α2M* or native ? 2M).

[1] = system: TGF-β receptors in Mv1Lu cells; assay: Binding of 125I-TGF-β2 to Mv1Lu cells in the presence of α2M*; type: cell-based, mink; settings: 30 μM arachidonic acid, 200 μg/ml α2M*
Source text: The levels of TGF ? β and ? 2M* also increase dramatically. α2M* is capable of inhibiting TGF- ? activity by forming complexes with TGF- ? and thus preventing it from binding to TGF ? β receptors in cells involved. Fatty acids may potentiate TGF ? β activity by blocking complex formation of ? 2M* and TGF ? β under these conditions. To test this possibility, we determined the effects of arachidonic acid on ^125I-TGF- ? 2 binding (in the presence and absence of α2M*) to Mv1Lu cells. ? 2M* is known to inhibit TGF- ? 2 more strongly than TGF ? β1 binding to T receptors in cells (13). Various concentrations of ^125I-TGF- ? 2 were preincubated with 200 μg/ml of ? 2M* in the presence or absence of 30 μM arachidonic acid for 30 min prior to the performance of binding assays in Mv1Lu cells. […] The residual ^125I-TGF- ? binding associated with the cells after ? 2M* inhibition was mainly due to non-specific binding of ^125I-TGF- ? 2. […] In the presence of 200 μg/ml of ? 2M*, the dose-response curve of TGF ? β2 shifted to the right. […] Addition of arachidonic acid at 0.5 and 1 μM reversed the inhibitory effect of. α2M* on TGF- ? 2-induced growth inhibition as measured by [methyl-^3H]-thymidine incorporation.
Binding of ^125I-TGF- ? […] After 2.5 hr at 0° C., the cells were washed with binding buffer, and the cell-associated radioactivity was determined. […]

[2] = target: T2, α2M* and basic fibroblast growth factor (bFGF) (Homo sapiens, UniProt P01023); assay: Complex formation between α2M* and basic fibroblast growth factor; type: binding
T2 sequence (P01023 24-1474): T1 sequence (P01023 24-1474)

CCCCC/C=C\C/C=C\C/C=C\C/C=C\CCCC(=O)O [arachidonic acid]
complex formation with native α2M (native α2M): no complex formation | reversal of α2M* inhibition of 125I-TGF-β2 binding to Mv1Lu cells [1]: completely reversed | blocking of complex formation between α2M* and bFGF [2]: block complex formation
